Source: patent US12502433B2, “Phosphonate-drug conjugates” (Massachusetts Eye and Ear Infirmary, priority 2016, dated 2025)
Where two headings read alike, the source gives them in different places.

Tests used:
[1] = tested on: spiral ganglion neurons; experiment: In vitro spiral ganglion neurite outgrowth; format: cell-based, CBA/CaJ pups; conditions: 400 nM, 48 hours
Description: Cochleae were harvested from P3-4 CBA/CaJ pups, after which the spiral ganglion neurons were sharply dissected free in a clump of cells, divided into three roughly equal sections, and plated with fibronectin on Dulbecco's Modified Eagle's medium (DMEM). Individual sections were then treated with media alone, 400 nM DHF, 400 nM RIS, or 400 nM DHF-RIS (Example 1) for 48 hours. After fixing and immunostaining with TUJI, the neurites were visualized under confocal microscopy and the neurite length quantified using ImageJ.

[2] = tested on: SG neurites; experiment: In vitro attraction of SG neurites after pre-binding to hydroxyapatite; format: cell-based
Description: This assay was performed to confirm that the DHF moiety within DHF-RIS (Example 1) remained available to attract neurites from a distance after binding to hydroxyapatite, a mineral substitute for bone. In a modification of the data shown in FIG. 14A, a separate set of experiments was performed in which RIS-DHF was pre-bound to hydroxyapatite pellets. The pellets were washed with media, and plated along with SGN explants. To visualize the hydroxyapatite pellets, a small amount of 6-FAM-ZOL (Example 4) was added to all samples. It was observed that neurites traveled up to […] before ending on and overlapping with hydroxyapatite pellets, as shown in FIG. 14C.

[3] = tested on: ribbon synapses; experiment: Ribbon synapse regeneration in organ of Corti explants after kainic acid; format: cell-based; conditions: 400 nM after two hours kainic acid
Description: To characterize the ability of DHF-RIS to regenerate ribbon synapses, a previously described organ of Corti explant system was used, wherein kainic acid was used to mimic excitotoxic damage to the ribbon synapse (see e.g., Wang et al, 7The Journal of Neuroscience: the official journal of the Society for Neuroscience, 2011, 31:7938-7949). Explants were treated with kainic acid for two hours to destroy synapses and then treated with 400 nM DHF, 400 nM RIS, or […] DHF-RIS (Example 1). Comparison was made with control samples not treated with kainic acid (KA−) and samples treated with kainic acid but no other drug (KA+). Synapses were detected by co-localization of CtBP2 and PSD95 as previously described and counted using the Amira program by an observer blinded to sample identity.

[4] = Round window membrane (RWM) alginate bead delivery of 6-FAM-ZOL: cochlear fluorescence; format: in vivo, guinea pig
Description: All animals were therefore analyzed after maximal bisphosphonate deposition. […] Round window delivery animals were analyzed at 3 weeks to allow middle ear inflammation to subside prior to hearing analysis and to account for transit across the RWM.
The inner ears were harvested and stripped of soft tissue. All subsequent steps were performed in covered vials to prevent 6-FAM-ZOL bleaching. Specimens were fixed in an excess volume of neutral buffered formalin (10%, Fisher Scientific, Pittsburgh PA) at room temperature for 24 hours. The neutral buffered formalin was changed and fixation continued for another 24 hours. To prepare for resin embedding, specimens were dehydrated in an ascending series of ethanol (Fisher Scientific, 24 hr at 70%, 1 hr at 70%, 1 hr at 85%, 0.5 hr at 95%, 0.5 hr at 100%) followed by a wash in xylene (Fisher Scientific) and a 15 minute immersion in xylene. Specimens were cleared of xylene by a 1 hour infiltration in methyl methacrylate (MMA, Acrylosin soft, Dorn and Hart, Villa Park, IL) under vacuum. The MMA solution was changed and samples were infiltrated for 24 hours under vacuum. The infiltration solution was changed and the process was repeated for another 24 hours. […]
High-resolution images (1360 by 1024; 16 bit) were taken under FITC illumination (470/40 excitation, 4951p dicroic; 525/50 emission) using a Carl Zeiss Axiovert 200 Inverted Microscope. ImageJ (Rasband WS, ImageJ, United States National Institutes of Health, Bethesda, Maryland, USA, 1997-2014) was used to quantify the amount of fluorescence within the cochlear wall and modiolus at each half-turn, as shown in FIG. 1. Background fluorescence, defined as the average amount of fluorescence in an area of the resin block containing no sample, was subtracted from all measurements. Fluorescence remained stable over at least two weeks after grinding if samples were kept in the dark at room temperature. […] Confocal images were collected over a depth of 500 μm to generate maximum fluorescence images. […]

[5] = Human temporal bone model: 6-FAM-ZOL delivery through the oval window
Description: 6-FAM-ZOL was synthesized as described in Example 4 and was dissolved in artificial perilymph (AP) at a concentration of 10 μg/μL. The content of AP (pH 7.4) was 130 mM NaCl, 3.5 mM KCl, 1.5 mM CaCl2, 5.5 mM glucose, and 20 mM HEPES.
Six freshly harvested cadaveric human temporal bones, which were obtained within 24 hours after death by the human temporal bone histopathology lab at Massachusetts Eye and Ear Infirmary, were used. The Pathology Quality Assurance Committee at Massachusetts General Hospital approved procurement of the specimens. The squamous and mastoid portions were drilled away, leaving the labyrinth. In three temporal bones, 1 μL of 10 μg/μL 6-FAM-ZOL was injected through the OW using a micropipette after lifting the stapes footplate. The footplate was then carefully laid back down. […]
Images (1024 by 1024; 8 bit) were collected using a Leica TCS-SP2 confocal microscope to generate maximum fluorescence images. To identify the surface of each specimen, the point of maximum fluorescence in the z-axis was first identified. A stack of images was then collected to a depth of 500 μm from the point of maximum fluorescence. […] ImageJ was used to quantify the amount of fluorescence associated with the labeled bisphosphonate within the lateral cochlear wall and the modiolus of the scala vestibuli and scala tympani at each half-turn, as shown in FIG. 11. […]

[6] = Hearing measurements (ABR, DPOAE) after systemic 6-FAM-ZOL; format: in vivo, guinea pig
Description: ABRs were recorded via subdermal needle electrodes (vertex—ventrolateral to the pinna of the test ear with a ground at the base of the tail). The CAPs electrode was located near the round window niche. Sound level was incremented in 5 dB steps, from ˜10 dB below threshold to 90 dB sound pressure level (SPL). Threshold for ABRs and CAPs was defined as the lowest stimulus level at which a repeatable wave could be identified in the response waveform.
Distortion product otoacoustic emissions (DPOAEs) were recorded for primary tones (f1, f2) over the same f2 range of frequencies, with a frequency ratio of 1.2, and with the level of the f2 primary 10 dB less than f1 level. Primaries were incremented together in 5 dB steps from −10 dB below threshold to 80 dB SPL. Ear-canal sound pressure was amplified and digitally sampled, FFTs were computed and averaged, and the 2f1-f2 DPOAE and surrounding noise floor were extracted. Iso-response contours were interpolated from plots of response amplitude vs. sound level. Threshold is defined as the f1 level required to produce a DPOAE of −5 dB SPL.
Distortion product otoacoustic emissions (DPOAEs) and auditory brainstem responses (ABRs) were measured in the systemic and round window membrane (RWM) delivery experiments. […] Hearing was measured at 2.78, 4, 5.6, 8, 12, 16, 24, and 32 kHz. […]

[7] = format: in vivo
Description: Male albino guinea pigs (Hartley strain; Charles River Laboratories, Inc., Wilmington, MA), each weighing approximately 350 g, were used. Nembutal (12.5 mg/kg intraperitoneally), Fentanyl (0.1 mg/kg intramuscularly), and Droperidol (5 mg/kg intramuscularly) were given for anesthesia. Supplemental doses of 0.7 mg/kg Fentanyl and 3.0 mg/kg Droperidol alternating with 6.25 mg/kg Nembutal were administered as needed. Animals were euthanized using pentobarbital (Fatal-Plus) at 390 mg/kg. The Massachusetts Eye and Ear Infirmary Institutional Animal Care and Use Committee approved all procedures.
All animals were therefore analyzed after maximal bisphosphonate deposition. Systemic delivery animals were analyzed at 48 hrs to account for potential differences between IP (our system) and IV (human) delivery.
The inner ears were harvested and stripped of soft tissue. All subsequent steps were performed in covered vials to prevent 6-FAM-ZOL bleaching. Specimens were fixed in an excess volume of neutral buffered formalin (10%, Fisher Scientific, Pittsburgh PA) at room temperature for 24 hours. The neutral buffered formalin was changed and fixation continued for another 24 hours. To prepare for resin embedding, specimens were dehydrated in an ascending series of ethanol (Fisher Scientific, 24 hr at 70%, 1 hr at 70%, 1 hr at 85%, 0.5 hr at 95%, 0.5 hr at 100%) followed by a wash in xylene (Fisher Scientific) and a 15 minute immersion in xylene. Specimens were cleared of xylene by a 1 hour infiltration in methyl methacrylate (MMA, Acrylosin soft, Dorn and Hart, Villa Park, IL) under vacuum. The MMA solution was changed and samples were infiltrated for 24 hours under vacuum. The infiltration solution was changed and the process was repeated for another 24 hours. Specimens were embedded in a solution of MMA containing 0.25% w/v (2.5 g/L) of perkadox-16 (Dom and Hart) for several hours under vacuum. After several hours, specimens were sealed in 50 mL polypropylene tubes and maintained at room temperature in a heat sink until fully cured (approximately 5 days).
Sections were prepared for fluorescent imaging by orienting and grinding the sample surface to the level of the mid-modiolus. Surfaces were polished on a 12″ table mounted rotary wheel using water and a progressively finer series of silicon carbide abrasive papers ending with 2400 grit (Buehler, Lake Bluff, 11).
High-resolution images (1360 by 1024; 16 bit) were taken under FITC illumination (470/40 excitation, 4951p dicroic; 525/50 emission) using a Carl Zeiss Axiovert 200 Inverted Microscope. ImageJ (Rasband WS, ImageJ, United States National Institutes of Health, Bethesda, Maryland, USA, 1997-2014) was used to quantify the amount of fluorescence within the cochlear wall and modiolus at each half-turn, as shown in FIG. 1. Background fluorescence, defined as the average amount of fluorescence in an area of the resin block containing no sample, was subtracted from all measurements. Fluorescence remained stable over at least two weeks after grinding if samples were kept in the dark at room temperature. Some images were also collected using a Leica TCS-SP2 confocal microscope. Confocal images were collected over a depth of 500 μm to generate maximum fluorescence images.
Mixed model analysis of variance was used to analyze the effect of dose on fluorescent response in the cochlea.

[8] = 6-FAM-ZOL infusion into the scala tympani via cochleostomy: cochlear fluorescence; format: in vivo, guinea pig
Description: All animals were therefore analyzed after maximal bisphosphonate deposition. […] Intracochlear delivery animals were analyzed at 3 hours as this timepoint allowed for high levels of delivery while avoiding the potential long-term effects of a cochleostomy.
The inner ears were harvested and stripped of soft tissue. All subsequent steps were performed in covered vials to prevent 6-FAM-ZOL bleaching. Specimens were fixed in an excess volume of neutral buffered formalin (10%, Fisher Scientific, Pittsburgh PA) at room temperature for 24 hours. The neutral buffered formalin was changed and fixation continued for another 24 hours. To prepare for resin embedding, specimens were dehydrated in an ascending series of ethanol (Fisher Scientific, 24 hr at 70%, 1 hr at 70%, 1 hr at 85%, 0.5 hr at 95%, 0.5 hr at 100%) followed by a wash in xylene (Fisher Scientific) and a 15 minute immersion in xylene. Specimens were cleared of xylene by a 1 hour infiltration in methyl methacrylate (MMA, Acrylosin soft, Dorn and Hart, Villa Park, IL) under vacuum. The MMA solution was changed and samples were infiltrated for 24 hours under vacuum. The infiltration solution was changed and the process was repeated for another 24 hours. Specimens were embedded in a solution of MMA containing 0.25% w/v (2.5 g/L) of perkadox-16 (Dom and Hart) for several hours under vacuum. […]
High-resolution images (1360 by 1024; 16 bit) were taken under FITC illumination (470/40 excitation, 4951p dicroic; 525/50 emission) using a Carl Zeiss Axiovert 200 Inverted Microscope. ImageJ (Rasband WS, ImageJ, United States National Institutes of Health, Bethesda, Maryland, USA, 1997-2014) was used to quantify the amount of fluorescence within the cochlear wall and modiolus at each half-turn, as shown in FIG. 1. Background fluorescence, defined as the average amount of fluorescence in an area of the resin block containing no sample, was subtracted from all measurements. […] Confocal images were collected over a depth of 500 μm to generate maximum fluorescence images. […]

[9] = Hearing measurements (ABR, DPOAE) after RWM 6-FAM-ZOL; format: in vivo, guinea pig
Description: Acoustic stimuli were digitally generated and auditory responses were monitored using a National Instruments PXI stimulus generation/data acquisition system, which included a 24 bit digital I-O board (PXI-4461) and a 16 bit digital I-O board (PXI-6221) and the Eaton Peabody Laboratories Cochlear Function Test Suite. To elicit the auditory brainstem responses (ABRs) and the compound action potentials (CAPs), 5 ms tone pip stimuli were used with 0.5 ms rise/fall times (cosine squared) in alternating polarity at 33/s.
Acoustic stimuli were delivered via a custom acoustic assembly comprising two dynamic drivers as sound sources and a miniature electret microphone to measure sound pressure in situ (for a complete description, see e.g., http://www.masseyeandear.org/research/otolaryngology/investigators/laboratories/eaton-peabody-laboratories/ep1-engineering-resources). The response from the electrodes was amplified (10,000×), filtered (0.3-3 kHz bandpass), and averaged (512 samples at each frequency-level combination for ABRs and 128 samples for CAPs).
ABRs were recorded via subdermal needle electrodes (vertex—ventrolateral to the pinna of the test ear with a ground at the base of the tail). The CAPs electrode was located near the round window niche. […]
Distortion product otoacoustic emissions (DPOAEs) were recorded for primary tones (f1, f2) over the same f2 range of frequencies, with a frequency ratio of 1.2, and with the level of the f2 primary 10 dB less than f1 level. […]
Distortion product otoacoustic emissions (DPOAEs) and auditory brainstem responses (ABRs) were measured in the systemic and round window membrane (RWM) delivery experiments. […] Hearing was measured at 2.78, 4, 5.6, 8, 12, 16, 24, and 32 kHz.
The round window was visualized via a bullectomy approach and the beads were placed within the round window membrane (RWM) niche under direct microscopic visualization. […] DPOAEs and ABRs were first measured while animals were under anesthesia prior to bullectomy and again prior to analysis.

[10] = Hearing measurements (CAP, DPOAE) after cochleostomy infusion; format: in vivo, guinea pig
Description: For the cochleostomy experiments, compound action potentials (CAPs) from the auditory nerve were substituted for ABRs.
A cochleostomy was performed approximately 0.5 mm distal to the round window via a bullectomy approach and the PTFE tubing was inserted into the scala tympani. Dental cement was used to seal the cochleostomy around the tubing. Infusion was performed at 1 μL over one minute, five times, spaced nine minutes apart. Control animals were treated with AP alone; 0.02× dosage animals were infused with 6-FAM-ZOL at 0.25 μg/μL; and 0.04× dosage animals were infused with 6-FAM-ZOL at 0.125 μg/μL+0.193 μg/μL zoledronate (total 4% of the 1× human zoledronate dose by molar weight). DPOAEs and CAPs were measured at time 0 (i.e., after cannula insertion and prior to infusion) and at 3 hrs. In independent experiments, three control animals were treated with AP alone, four animals were treated with AP containing 0.02× 6-FAM-ZOL, and three animals were treated with AP containing 0.04× 6-FAM-ZOL+zoledronate.

[11] = humans, cited from earlier work
[12] = systemic 1× and 3× doses, 48 hrs
[13] = 1× systemic dose (0.185 mg/kg IP), 48 hrs
[14] = control, 1× and 3× systemic doses
[15] = three weeks after placement on the RWM
[16] = 0.02× cochleostomy infusion, 3 hrs, relative to control animals

Question: With `O=C(CCOCCOCCOCCOCCNC(=O)c1ccc(-c2cc(=O)c3ccc(O)c(O)c3o2)cc1)NCC(O)C[n+]1cccc(CC(O)(P(=O)(O)O)P(=O)(O)O)c1` (stereo not drawn) [DHF-RIS] as the molecule, how does the “neurite outgrowth (neurite length)” value [1] read?
Answer: Its value is “significant outgrowth”.

Question: What about the “distance neurites traveled before ending on hydroxyapatite pellets” value ([2]; conjugate pre-bound to hydroxyapatite pellets) of the same molecule?
Answer: The value was “up to 400 μM”.

Question: What about the “attraction of SG neurites after pre-binding to hydroxyapatite” value ([2]; in vitro) of the same molecule?
Answer: Its value is “available to attract SG neurites”.

Question: And the “regeneration of ribbon synapses” value [3]?
Answer: Its value is “significant regeneration compared to non-rescued explants, although less than native DHF”.

Question: With `O=C(NCC(O)C[n+]1ccn(CC(O)(P(=O)(O)O)P(=O)(O)O)c1)c1ccc(C(=O)O)c(-c2c3ccc(=O)cc-3oc3cc(O)ccc23)c1` (stereo not drawn) [Example 6-FAM-ZOL] as the molecule, how does the cochlear fluorescence ([4]; 0.1× dose on RWM, 3 weeks) read?
Answer: The cochlear fluorescence was “lower, but still detectable”.

Question: And the “delivery throughout the lateral wall of the cochlea (fluorescence)” value ([4]; 0.3× dose in alginate bead on RWM, 3 weeks)?
Answer: The value was “comparable to the 1× systemic dose”.

Question: And the “levels of fluorescence in modiolus and lateral wall vs control” value ([4]; RWM delivery 0.1× and 0.3×)?
Answer: The value was “significantly higher than the control”.

Question: And the “fluorescent signal in bony walls of the vestibular capsule and the cochlea” value ([5]; 1 μL of 10 μg/μL through the oval window, 4 days)?
Answer: Its value is “strong fluorescent signal”.

Question: And the “effect of dose (6-FAM-ZOL vs artificial perilymph) on fluorescence, lateral wall and modiolus, scala vestibuli and scala tympani” value ([5]; all p<0.05)?
Answer: The value was “significant effect of dose”.

Question: And the ABR change [6, 12]?
Answer: Its ABR change is “No significant physiological changes”.

Question: And the DPOAE change [6, 12]?
Answer: Its DPOAE change is “No significant physiological changes”.

Question: What about the ototoxicity ([6]; systemic treatment) of the same molecule?
Answer: The ototoxicity was “non-ototoxic”.

Question: What about the “average fluorescence stronger in tibiae compared to cochleae” value ([7]; 1× systemic dose) of the same molecule?
Answer: The value was 50%.

Question: What about the “average fluorescence above control, cochleae” value [7, 13] of the same molecule?
Answer: Its value is “approximately 5,800 fluorescence units”.

Question: What about the “average fluorescence above control, tibiae” value [7, 13] of the same molecule?
Answer: The value was ~8,800 fluorescence units.

Question: What about the “fluorescence in lateral wall of cochleae” value [7, 14] of the same molecule?
Answer: The value was “increased with dose and the differences were statistically significant”.

Question: And the fluorescence in tibiae [7, 14]?
Answer: The fluorescence in tibiae was “dose-dependent and statistically significant”.

Question: And the “total average fluorescence of the lateral wall vs control” value ([8]; 0.2× dose (so in the source))?
Answer: The value was “significantly greater”.

Question: What about the “total average fluorescence of the modiolus vs control” value ([8]; 0.2× treatment (so in the source)) of the same molecule?
Answer: The value was “significantly greater”.

Question: And the “fluorescent signal along osseous spiral lamina of the modiolus and lateral wall of the cochlea” value ([8]; 2% (0.02×) of the 1× systemic dose, 3 hours)?
Answer: The value was “bright fluorescent signal”.

Question: What about the ototoxicity ([9]; local delivery onto the RWM) of the same molecule?
Answer: The ototoxicity was “not ototoxic”.

Question: And the ABR shift [9, 15]?
Answer: Its ABR shift is “no shifts”.

Question: What about the DPOAE shift [9, 15] of the same molecule?
Answer: Its DPOAE shift is “no shifts”.

Question: What about the “additional CAP shift” value [10, 16] of the same molecule?
Answer: Its value is 10-15 dB.

Question: And the “additional DPOAE shift” value [10, 16]?
Answer: The value was 10-15 dB.

Question: What about the immediate ototoxicity ([10]; direct infusion into the cochlea) of the same molecule?
Answer: Its immediate ototoxicity is “without significant immediate ototoxicity”.

Question: Which “regeneration of ribbon synapses” value [3] does the source give for `O=P(O)(O)C(O)(Cc1cccnc1)P(=O)(O)O` [RIS, reference compound] here?
Answer: Its value is “some ability to regenerate synapses”.

Question: With `O=P(O)(O)C(O)(Cn1ccnc1)P(=O)(O)O` [zoledronate] as the molecule, how does the “drug remaining in plasma” value ([11]; after 24 hours) read?
Answer: Its value is “less than 1%”.

Question: And the plasma half-life ([11]; first of two half-lives)?
Answer: The plasma half-life was 12 min.

Question: And the plasma half-life ([11]; second of two half-lives)?
Answer: Its plasma half-life is 84 min.
